# Earlier results in patent US20100184765A1, “Protein Kinase Inhibitors and Methods for Using Thereof” (IRM LLC, priority 2007, published 2010).
# Biological target: Flt-1 (Homo sapiens, UniProt P17948)
# Settings: VEGF binding to Flt-1, literature report
# Flt-1, sequence (P17948 27-1338, species assumed): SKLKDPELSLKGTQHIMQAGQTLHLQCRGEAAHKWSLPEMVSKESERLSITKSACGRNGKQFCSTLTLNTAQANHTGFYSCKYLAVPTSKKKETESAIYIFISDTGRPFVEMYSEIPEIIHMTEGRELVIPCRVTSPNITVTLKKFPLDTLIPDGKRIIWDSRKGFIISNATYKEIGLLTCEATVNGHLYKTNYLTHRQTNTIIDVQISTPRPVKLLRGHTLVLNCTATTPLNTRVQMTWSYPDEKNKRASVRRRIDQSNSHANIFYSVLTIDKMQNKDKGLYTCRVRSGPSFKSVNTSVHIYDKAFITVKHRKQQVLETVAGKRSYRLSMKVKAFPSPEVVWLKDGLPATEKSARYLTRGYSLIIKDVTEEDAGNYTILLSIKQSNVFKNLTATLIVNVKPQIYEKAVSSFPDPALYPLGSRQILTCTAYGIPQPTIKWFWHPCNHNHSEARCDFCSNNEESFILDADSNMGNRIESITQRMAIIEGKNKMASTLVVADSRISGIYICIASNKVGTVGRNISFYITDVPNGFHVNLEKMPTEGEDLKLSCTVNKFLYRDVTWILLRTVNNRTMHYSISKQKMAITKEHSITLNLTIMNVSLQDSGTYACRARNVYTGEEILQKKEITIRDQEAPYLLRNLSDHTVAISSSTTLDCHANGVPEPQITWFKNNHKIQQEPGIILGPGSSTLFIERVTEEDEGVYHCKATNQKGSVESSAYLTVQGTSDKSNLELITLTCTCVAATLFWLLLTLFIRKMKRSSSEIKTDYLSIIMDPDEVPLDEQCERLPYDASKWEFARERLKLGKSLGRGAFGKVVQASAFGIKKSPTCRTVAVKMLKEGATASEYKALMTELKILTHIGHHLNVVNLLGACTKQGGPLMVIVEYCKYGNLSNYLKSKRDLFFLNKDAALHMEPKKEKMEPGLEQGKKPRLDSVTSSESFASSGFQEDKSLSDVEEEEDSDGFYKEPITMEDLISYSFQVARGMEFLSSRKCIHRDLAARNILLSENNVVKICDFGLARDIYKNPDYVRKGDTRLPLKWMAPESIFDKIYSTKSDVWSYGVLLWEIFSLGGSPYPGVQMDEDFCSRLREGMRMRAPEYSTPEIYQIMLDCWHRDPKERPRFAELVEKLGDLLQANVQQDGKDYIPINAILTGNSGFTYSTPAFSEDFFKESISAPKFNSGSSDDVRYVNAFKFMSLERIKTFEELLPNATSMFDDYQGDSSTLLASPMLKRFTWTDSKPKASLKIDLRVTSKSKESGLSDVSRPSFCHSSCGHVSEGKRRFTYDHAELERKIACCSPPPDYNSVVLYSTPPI
substance,measurement,value
VEGF,Kd,0.02 nM
